{"source": "PubChem BioAssay AID194", "about": "(DTP/NCI, 2004)", "test_system": "BDF1 mice, B16 melanoma s.c., survival/tumor T/C", "test": "NCI In Vivo Anticancer Drug Screen. Data for tumor model B16 Melanoma (subcutaneous) in B6D2F1 (BDF1) mice", "protocol": "The antitumor activity of compounds was measured in mice bearing transplantable tumors. Survival or tumor size were measured and the results are expressed as the measurement made in the treated group (T) divided by the measurement made in the vehicle treated control group (C). The tumor model used in this assay is B16 Melanoma (subcutaneous) in B6D2F1 (BDF1) mice", "key": {"[1]": {"conditions": "endpoint: median survival time, dose: 0.06 mg/kg/injection, schedule: Q01DX009 (ip), vehicle: saline, higher = longer survival"}, "[2]": {"conditions": "endpoint: median survival time, dose: 0.12 mg/kg/injection, schedule: Q01DX009 (ip), vehicle: saline, higher = longer survival"}}, "note": "Where “and” joins values, the source holds several entries; their conditions need not be identical. Identical values can stand only once. Inconclusive results are not listed. *1 amine or outer side, *2 acyl side, *3 side chain or, on linkers, in order; H or OH if unused. Where a SMILES comes first, the peptide text is derived from it. Bridges are numbered along the chain shown (N, C = ends). Roman numbers before positions name the chains, in order. [ ]: non-standard residue; d: D form. Actinocin(9to1) = Cc1c2oc3c(C)ccc(C(=O)[*:1])c3nc-2c(C(=O)[*:2])c(N)c1=O; aThr = C[C@H](O)[C@H](N)C(=O)O; NMeV = CN[C@H](C(=O)O)C(C)C; Sar = CNCC(=O)O", "data": [{"smiles": "CN(C)CCCN1c2ccccc2Sc2ccc(Cl)cc21", "values": [{"measurement": "T/C", "setting": "[1]", "value": "98 % of control"}, {"measurement": "T/C", "setting": "[2]", "value": "92 % of control"}, {"measurement": "T/C", "setting": "endpoint: median survival time, dose: 0.5 mg/kg/injection, schedule: Q01DX009 (ip), vehicle: saline, higher = longer survival", "value": "97 % of control"}, {"measurement": "T/C", "setting": "endpoint: median survival time, dose: 1.0 mg/kg/injection, schedule: Q01DX009 (ip), vehicle: saline, higher = longer survival", "value": "98 % of control"}]}, {"smiles": "CC[C@]1(O)C[C@H]2CN(CCc3c([nH]c4ccccc34)[C@@](C(=O)OC)(c3cc4c(cc3OC)N(C=O)[C@H]3[C@@](O)(C(=O)OC)[C@H](OC(C)=O)[C@]5(CC)C=CCN6CC[C@]43[C@@H]65)C2)C1", "values": [{"measurement": "T/C", "setting": "[1]", "value": "100 % of control and 115 % of control"}, {"measurement": "T/C", "setting": "[2]", "value": "104 % of control and 121 % of control"}, {"measurement": "T/C", "setting": "endpoint: median survival time, dose: 0.13 mg/kg/injection, schedule: Q01DX009 (ip), vehicle: saline, higher = longer survival", "value": "100 % of control"}, {"measurement": "T/C", "setting": "endpoint: median survival time, dose: 0.7 mg/kg/injection, schedule: Q04DX003 (ip), vehicle: saline, higher = longer survival", "value": "93 % of control"}, {"measurement": "T/C", "setting": "endpoint: median survival time, dose: 1.0 mg/kg/injection, schedule: Q04DX003 (ip), vehicle: saline, higher = longer survival", "value": "100 % of control"}, {"measurement": "T/C", "setting": "endpoint: median survival time, dose: 1.5 mg/kg/injection, schedule: Q04DX003 (ip), vehicle: saline, higher = longer survival", "value": "113 % of control"}]}, {"smiles": "CC(C)[C@](O)(C(=O)OCC1=CC[N+]2([O-])CC[C@@H](O)[C@@H]12)[C@H](C)O", "note": "(stereo not given in full)", "values": [{"measurement": "T/C", "setting": "endpoint: median survival time, dose: 50.0 mg/kg/injection, schedule: Q01DX009 (ip), vehicle: water, higher = longer survival", "value": "95 % of control"}, {"measurement": "T/C", "setting": "endpoint: median survival time, dose: 100.0 mg/kg/injection, schedule: Q01DX009 (ip), vehicle: water, higher = longer survival", "value": "106 % of control"}, {"measurement": "T/C", "setting": "endpoint: median survival time, dose: 200.0 mg/kg/injection, schedule: Q01DX009 (ip), vehicle: water, higher = longer survival", "value": "103 % of control"}]}, {"smiles": "COC(=O)[C@@]12OC[C@]34[C@H]([C@@H](O)[C@@H]1O)[C@@]1(C)CC(=O)C(O)=C(C)[C@@H]1C[C@H]3OC(=O)[C@H](OC(=O)/C=C(\\C)C(C)C)[C@@H]24", "values": [{"measurement": "T/C", "setting": "endpoint: median survival time, dose: 0.25 mg/kg/injection, schedule: Q01DX009 (ip), vehicle: saline with Tween-80, higher = longer survival", "value": "109 % of control"}, {"measurement": "T/C", "setting": "endpoint: median survival time, dose: 0.5 mg/kg/injection, schedule: Q01DX009 (ip), vehicle: saline with Tween-80, higher = longer survival", "value": "96 % of control"}, {"measurement": "T/C", "setting": "endpoint: median survival time, dose: 1.0 mg/kg/injection, schedule: Q01DX009 (ip), vehicle: saline with Tween-80, higher = longer survival", "value": "103 % of control"}, {"measurement": "T/C", "setting": "endpoint: median survival time, dose: 1.1 mg/kg/injection, schedule: Q01DX009 (ip), vehicle: saline with Tween-80, higher = longer survival", "value": "121 % of control"}, {"measurement": "T/C", "setting": "endpoint: median survival time, dose: 1.3 mg/kg/injection, schedule: Q04DX003 (ip), vehicle: saline with Tween-80, higher = longer survival", "value": "116 % of control"}, {"measurement": "T/C", "setting": "endpoint: median survival time, dose: 2.0 mg/kg/injection, schedule: Q01DX001 (ip), vehicle: saline with Tween-80, higher = longer survival", "value": "103 % of control"}, {"measurement": "T/C", "setting": "endpoint: median survival time, dose: 2.0 mg/kg/injection, schedule: Q04DX003 (ip), vehicle: saline with Tween-80, higher = longer survival", "value": "112 % of control"}]}, {"smiles": "CCOC(=O)C1CCC(NC(=O)N(CCCl)N=O)CC1", "note": "(stereo not given)", "values": [{"measurement": "T/C", "setting": "endpoint: median survival time, dose: 33.0 mg/kg/injection, schedule: Q01DX001 (ip), vehicle: gum acacia, higher = longer survival", "value": "196 % of control"}, {"measurement": "T/C", "setting": "endpoint: median survival time, dose: 44.0 mg/kg/injection, schedule: Q01DX001 (ip), vehicle: gum acacia, higher = longer survival", "value": "192 % of control"}]}, {"smiles": "NCCc1ccc(O)c(O)c1", "values": [{"measurement": "T/C", "setting": "endpoint: median survival time, dose: 100.0 mg/kg/injection, schedule: Q01DX009 (ip), vehicle: saline, higher = longer survival", "value": "107 % of control"}, {"measurement": "T/C", "setting": "endpoint: median survival time, dose: 200.0 mg/kg/injection, schedule: Q01DX009 (ip), vehicle: saline, higher = longer survival", "value": "106 % of control"}, {"measurement": "T/C", "setting": "endpoint: median survival time, dose: 400.0 mg/kg/injection, schedule: Q01DX009 (ip), vehicle: saline, higher = longer survival", "value": "97 % of control"}, {"measurement": "T/C", "setting": "endpoint: median survival time, dose: 600.0 mg/kg/injection, schedule: Q01DX009 (ip), vehicle: saline, higher = longer survival", "value": "110 % of control"}]}, {"smiles": "OCC1OC(n2cnc3c2NC=NC[C@H]3O)CC1O", "note": "(stereo not given in full)", "values": [{"measurement": "T/C", "setting": "endpoint: median survival time, dose: 0.05 mg/kg/injection, schedule: Q03HX024 (ip), vehicle: saline, higher = longer survival", "value": "90 % of control"}, {"measurement": "T/C", "setting": "endpoint: median survival time, dose: 0.1 mg/kg/injection, schedule: Q03HX024 (ip), vehicle: saline, higher = longer survival", "value": "105 % of control"}]}, {"smiles": "CC(c1ccccc1)N1C(=O)CSC1=S", "note": "(stereo not given)", "values": [{"measurement": "T/C", "setting": "endpoint: median survival time, dose: 400.0 mg/kg/injection, schedule: Q01DX009 (ip), vehicle: Klucel (hydroxypropylcellulose) (HPC), higher = longer survival", "value": "89 % of control"}]}, {"smiles": "Cc1c2oc3c(C)ccc(C(=O)N[C@@H]4C(=O)N[C@H](C(C)C)C(=O)N5CCC[C@H]5C(=O)N(C)CC(=O)N(C)[C@@H](C(C)C)C(=O)O[C@H]4C)c3nc-2c(C(=O)N[C@@H]2C(=O)N[C@H](C(C)C)C(=O)N3CCC[C@H]3C(=O)N(C)CC(=O)N(C)[C@@H](C(C)C)C(=O)O[C@H]2C)c(N)c1=O", "note": "(I: [aThr][dV]P[Sar][NMeV] / II: [aThr][dV]P[Sar][NMeV]; ester I:1-I:C, II:1-II:C; linker I:N-II:N via Actinocin(9to1))", "values": [{"measurement": "T/C", "setting": "endpoint: median tumor weight (est.), dose: 100.0 micrograms/kg/injection, schedule: Q01DX009 (ip), vehicle: saline, higher = larger tumour", "value": "38 % of control"}]}, {"smiles": "COc1cccc2c1C(=O)c1c(O)c3c(c(O)c1C2=O)C[C@@](O)(/C(C)=N/NC(=O)c1ccccc1)C[C@@H]3OC1CC(N)C(O)C(C)O1", "note": "(stereo not given in full)", "values": [{"measurement": "T/C", "setting": "endpoint: median survival time, dose: 3.0 mg/kg/injection, schedule: Q01DX009 (ip), vehicle: saline, higher = longer survival", "value": "103 % of control"}, {"measurement": "T/C", "setting": "endpoint: median survival time, dose: 4.0 mg/kg/injection, schedule: Q01DX009 (ip), vehicle: saline, higher = longer survival", "value": "118 % of control"}, {"measurement": "T/C", "setting": "endpoint: median survival time, dose: 6.0 mg/kg/injection, schedule: Q01DX009 (ip), vehicle: saline, higher = longer survival", "value": "121 % of control"}, {"measurement": "T/C", "setting": "endpoint: median survival time, dose: 15.0 mg/kg/injection, schedule: Q04DX003 (ip), vehicle: saline, higher = longer survival", "value": "103 % of control"}, {"measurement": "T/C", "setting": "endpoint: median survival time, dose: 30.0 mg/kg/injection, schedule: Q01DX001 (ip), vehicle: saline, higher = longer survival", "value": "93 % of control"}]}]}
